# Where two headings read alike, the source gives them in different places.
# How the values were obtained:
# [1] = test system: human myelogenous leukemia K562; experiment: MTS cytotoxicity assay, K562; type: cell-based
# Description: (§1) In order to obtain information about the growth-inhibiting action of hydrazones reported in the present invention on tumor cells, growth inhibition was assessed for the following human tumor cell lines: human myelogenous leukemia K562, human cervical adenocarcinoma HeLa, human colon adenocarcinoma Caco-2, human colon carcinoma HT-29, human colon carcinoma HCT-15, and human breast carcinoma MCF-7.
# (§2) The K562, HeLa, HT-29, HCT-15, Caco-2, and MCF-7 cell lines were obtained from the American type Culture Collection (ATCC, Manassas, Va.). K562 cells were maintained in RPMI 1640 medium (Gibco/Life Technologies, Gaithersburg, Md.) containing 10% heat-inactivated fetal bovine serum (FBS) (Atlanta Biologicals, Atlanta, Ga.) and 10000 U/L penicillin and 50 mg/L streptomycin. HeLa, HT-29, HCT-15, Caco-2 and MCF-7 cells were maintained in MEM with Earl's balanced salts, 10% FBS, penicillin, and streptomycin as above. Logarithmically growing HT-29, Caco-2, and MCF-7 cells were incubated with 0.05% trypsin containing 1 mM EDTA at 37° C. for about 5 min until cells were nonadherent and formed a single cell suspension. Trypsin activity was neutralized by adding 20-fold excess of the serum-containing medium. Cells were cultured at 37° C. in an atmosphere of air and 5% CO2.
# (§3) Cytotoxicity assays were conducted by tetrazolium reduction of 3-(4,5-dimethylthiazol-2-yl)-5-(3-carboxymethoxyphenyl)-2-(4-sulfophenyl)-2H-tetrazolium (MTS) with N-methylphenazonium methyl sulfate (PMS) (CellTiter Assay, Promega, Madison, Wis.). Logarithmically growing cells were plated in 0.1 mL aliquots in 96-well microtiter plates. Cells were plated at an initial density of about 5000 cells/mL and allowed to acclimatize for 24 h. Cell suspensions were treated with various dilutions of compounds in triplicate, mixed well, and allowed to incubate for 48 h at 37° C. in an atmosphere of air and 5% CO2. To the cell suspension was added 20 μL of tetrazolium reagent, the mixture was incubated for 2 h at 37° C. in an atmosphere of air and 5% CO2, and absorbance at 490 nm was read by microplate reader. Control plates with serial dilutions of cell types were counted as a control for the assay. In all cases, controls indicated a linear response versus cell number, R^2≧0.99.
# [2] = test system: human colorectal carcinoma HT29; experiment: Annexin-V FACS analysis of apoptosis; type: cell-based; details: FIGS. 3 and 4, treated versus control cells
# Description: This activation was through ERK signaling and not through JNK signaling, resulting in PARP cleavage after 16 h. […] Activation of NFkB (p50) was also observed following treatment with these compounds.
# [3] = test system: nonsmall cell lung cancer cell lines; experiment: NCI 60 human tumor cell line screen, NSCL; type: cell-based; details: arithmetic mean of two to nine cancer cell lines, read-out: Inhibitory concentration GI50, NSCL
# Excerpt: (§4) Selected compounds were submitted for testing in the organ-specific panel of human tumor cell lines at the National Cancer Institute, Bethesda, Md. This screen utilized 60 human tumor cell lines, representing leukemia, melanoma, and cancers of the lung, colon, brain, ovary, kidney, prostate, and breast (Boyd, M. R., “Status of the NCl preclinical antitumor drug discovery screen”. In Principles and practice of oncology updates; De Vita, V. T., Jr. Hellman, S., Rosenberg, S. A., Eds.; Lippincott: Philadelphia, Pa., 1989; Vol. 3, pp 1-12).
# (§5) The MG MID value is the average of the GI50 values for all the cell lines tested for drug concentrations in the range of 10^−4-10^−8 M (See website domain: dtp.nci.nih.gov/dtp).
# renal cancer cell lines = experiment: NCI 60 human tumor cell line screen, renal; type: cell-based; details: arithmetic mean of two to nine cancer cell lines, read-out: Inhibitory concentration GI50, renal
# Excerpt: as §4, §5
# [4] = test system: human colon adenocarcinoma Caco-2; experiment: MTS cytotoxicity assay, Caco-2; type: cell-based
# Description: as §1, §2, §3
# [5] = test system: human colon carcinoma HT-29; experiment: MTS cytotoxicity assay, HT-29; type: cell-based
# Description: as §1, §2, §3
# [6] = test system: 60 human tumor cell lines; experiment: NCI 60 human tumor cell line screen, all cell lines; type: cell-based; details: for cells found to be the most sensitive: NCI screen, by cancer type; for mean GI50 (MG-MID): average of the GI50 values for all the cell lines tested, drug concentrations 10^−4-10^−8 M, read-out: MG-MID (mean graph midpoint)
# Excerpt: as §4, §5
# [7] = test system: human colorectal carcinoma HT29; experiment: Western blot of signal transduction pathways in HT29 cells; type: cell-based; details: HT29, IC50 dose
# Description: The newly synthesized hydrazones RPC038, RPC042, and RPC046 had shown anti-tumor activity against 60 human cancer cell lines panel of the National Cancer Institute and on multi-drug resistant cell lines. The present studies were conducted to evaluate their action on signal transduction pathways in human colorectal carcinoma HT29. All the three compounds were examined at their IC50 doses.
# Human colorectal carcinoma HT29 cells were obtained from the National Cancer Institute, Bethesda, Md., USA, and maintained in 5% CO2 at 37° C. in minimum essential media (Life Technologies, Inc., Grand Island, N.Y., USA) supplemented with 1% penicillin, streptomycin (Invitrogen, Carlsbad, Calif., USA), and 10% fetal bovine serum for optimal growth. HT29 cells (1×10^6) were plated in […], and 24 h later, fresh media was added and treated with the RPC038, RPC042 and RPC046 for indicated time points (2, 4, 8, 16 and 24 h). The cells were then washed with cold phosphate buffered saline (PBS) and taken in 1 ml PBS on ice and centrifuged at 4° C. The pellet was resuspended in appropriate volumes of radio immunoprecipitation assay buffer with protease inhibitor, kept on ice for 45 min and subsequently centrifuged at 4° C. An aliquot of supernatant (protein extract) was used to estimate the protein concentration. An aliquot of protein extract (40 μg) was subjected to Western blot analysis on a 12% polyacrylamide gel and transferred to nitrocellulose membrane. Blots were blocked, incubated with primary anti-pMEK, pERK, pJNK, pcjun, ERK, JNK, Cjun, Caspase-8, Caspase-6, PARP cleavage, or GAPDH antibodies (Cell Signaling Technology, Danvers, Mass.) and then conjugated with a secondary anti-mouse or an anti-rabbit horseradish […] antibody, and detected by ChemiDoc™ XRS+ System with Image Lab™ Software.
# [8] = test system: human breast carcinoma MCF-7; experiment: MTS cytotoxicity assay, MCF-7; type: cell-based
# Description: as §1, §2, §3
# CNS cancer cell lines = experiment: NCI 60 human tumor cell line screen, CNS; type: cell-based; details: arithmetic mean of two to nine cancer cell lines, read-out: Inhibitory concentration GI50, CNS
# Excerpt: as §4, §5
# [9] = test system: human colorectal carcinoma HT29; experiment: Western blot of signal transduction pathways in HT29 cells; type: cell-based; details: HT29, IC50 dose; remark: listed apart in the source
# colon cancer cell lines = experiment: NCI 60 human tumor cell line screen, colon; type: cell-based; details: arithmetic mean of two to nine cancer cell lines, read-out: Inhibitory concentration GI50, colon
# Excerpt: as §4, §5
# HL60-VCR [10] = experiment: MTS cytotoxicity on MDR tumor cells, HL60-VCR; type: cell-based; details: Vincristine (VCR) resistant, 72 hr incubation
# HL60 = experiment: MTS cytotoxicity on MDR tumor cells, HL60; type: cell-based; details: 72 hr incubation
# leukemia cell lines = experiment: NCI 60 human tumor cell line screen, leukemia; type: cell-based; details: arithmetic mean of two to nine cancer cell lines, read-out: Inhibitory concentration GI50, leukemia
# Excerpt: as §4, §5
# [11] = test system: prostate cancer cell lines; experiment: NCI 60 human tumor cell line screen, prostate; type: cell-based; details: arithmetic mean of two to nine cancer cell lines, read-out: Inhibitory concentration GI50, prostrate
# Excerpt: as §4, §5
# melanoma cell lines = experiment: NCI 60 human tumor cell line screen, melanoma; type: cell-based; details: arithmetic mean of two to nine cancer cell lines, read-out: Inhibitory concentration GI50, melanoma
# Excerpt: as §4, §5
# breast cancer cell lines = experiment: NCI 60 human tumor cell line screen, breast; type: cell-based; details: arithmetic mean of two to nine cancer cell lines, read-out: Inhibitory concentration GI50, breast
# Excerpt: as §4, §5
# [12] = test system: ovarian cancer cell lines; experiment: NCI 60 human tumor cell line screen, ovarian; type: cell-based; details: arithmetic mean of two to nine cancer cell lines, read-out: Inhibitory concentration GI50, ovarian
# Excerpt: as §4, §5
# [13] = test system: human cervical adenocarcinoma HeLa; experiment: MTS cytotoxicity assay, HeLa; type: cell-based; details: 48 h incubation
# Description: as §1, §2, §3
# [14] = test system: human colon carcinoma HCT-15; experiment: MTS cytotoxicity assay, HCT-15; type: cell-based
# Description: as §1, §2, §3
# KB-A1000 = details: MDR cell line characterisation; cited from earlier work
# HL60-VCR [15] = details: MDR cell line characterisation; cited from earlier work
smiles,measurement,setting,value
OC[C@H]1OC(n2cnc3c(NN=Cc4ccccn4)ncnc32)[C@H](O)[C@@H]1O (stereo partly shown) [I-9],GI50,[1]; 48 h incubation,1.5 µM
same,"Apoptosis (Annexin-V, FACS analysis)",[2],Apoptosis was also established
same,GI50,[3],0.269 µM
same,GI50,renal cancer cell lines,0.219 µM
same,GI50,[4]; 48 h incubation,0.4 µM
same,GI50,[5]; 48 h incubation,2 µM
same,cells found to be the most sensitive,[6],"leukemia, prostate, ovarian, and renal cancer cell lines"
same,mean GI50 (MG-MID),[6],0.228 µM
same,phosphorylation of ERK (time),[7]; Western blot pERK,4 h
same,phosphorylation of JNK,[7]; Western blot pJNK (results not shown),without phosphorylation of JNK
same,MEK activation (time),[7]; Western blot pMEK,2 h
same,activation of cjun (time),[7]; Western blot pcjun,6 h
same,Caspase activation,[7]; initial studies,Caspase-3 activation through Caspase-6 and not through Caspase-8
same,GI50,[8]; 48 h incubation,2 µM
same,GI50,CNS cancer cell lines,0.271 µM
same,Activation of NFkB (p50),[9],observed
same,GI50,colon cancer cell lines,0.251 µM
same,GI50,HL60-VCR [10],1.5 µM
same,GI50,HL60; Vincristine (VCR) sensitive,1 µM
same,GI50,leukemia cell lines,0.116 µM
same,GI50,[11],0.137 µM
same,GI50,melanoma cell lines,0.347 µM
same,GI50,breast cancer cell lines,0.25 µM
same,GI50,[12],0.196 µM
same,GI50,[13],1.2 µM
same,GI50,[14]; 48 h incubation,< 1 µM
CC[C@]1(O)C[C@@H]2CN(CCc3c([nH]c4ccccc34)[C@@](C(=O)OC)(c3cc4c(cc3OC)N(C)[C@H]3[C@@](O)(C(=O)OC)[C@H](OC(C)=O)[C@]5(CC)C=CCN6CC[C@]43[C@@H]65)C2)C1 [vinblastine],resistance expressed by KB-A1000,KB-A1000,43 fold
same,resistance expressed by HL60-VCR,HL60-VCR [15],620 fold
"CC(C)=NNc1ncnc2c1ncn2C1O[C@H](CO)[C@@H](O)[C@H]1O (stereo partly drawn) [I-12, (2R,3S,4R)-2-(hydroxymethyl)-5-(6-(2-(propan-2-ylidene)hydrazinyl)-9H-purin-9-yl)tetrahydrofuran-3,4-diol]",GI50,"[1]; Homo sapiens, K562, 48 h incubation",0.3 µM
same,GI50,[3]; Homo sapiens,0.786 µM
same,GI50,renal cancer cell lines; Homo sapiens,0.516 µM
same,GI50,"[4]; Homo sapiens, Caco-2, 48 h incubation",0.2 µM
same,GI50,"[5]; Homo sapiens, HT-29, 48 h incubation",1.6 µM
same,mean GI50 (MG-MID),[6]; Homo sapiens,0.847 µM
same,cells found to be the most sensitive,[6],"prostate, ovarian, colon, and renal cancer cell lines"
same,GI50,"[8]; Homo sapiens, MCF7, 48 h incubation",0.2 µM
same,GI50,CNS cancer cell lines; Homo sapiens,1.2 µM
same,GI50,colon cancer cell lines; Homo sapiens,0.497 µM
same,GI50,HL60-VCR [10]; HL60/VCR,2.2 µM
same,GI50,"HL60; Homo sapiens, HL-60, Vincristine (VCR) sensitive",1.8 µM
same,GI50,leukemia cell lines; Homo sapiens,1.27 µM
same,GI50,[11]; Homo sapiens,0.363 µM
same,GI50,melanoma cell lines; Homo sapiens,1.9 µM
same,GI50,breast cancer cell lines; Homo sapiens,0.751 µM
same,GI50,[12]; Homo sapiens,0.447 µM
same,GI50,"[13]; Homo sapiens, HeLa",0.6 µM
same,GI50,"[14]; Homo sapiens, HCT-15, 48 h incubation",2.8 µM
COc1cccc2c1C(=O)c1c(O)c3c(c(O)c1C2=O)C[C@@](O)(C(=O)CO)C[C@@H]3O[C@H]1C[C@H](N)[C@H](O)[C@H](C)O1 [doxorubicine],resistance expressed by KB-A1000,KB-A1000,97 fold
same,resistance expressed by HL60-VCR,HL60-VCR [15],8 fold

# Reference: patent publication US9133230B2, “Hydrazone derivatives having potent antitumor activity toward multi-drug resistant tumor cells” (THE UNITED STATES OF AMERICA AS REPRESENTED BY THE …, priority 2011, dated 2015)
